Data on six compounds can be found in patent US5096925A, “N-substituted butyramide derivatives” (Ciba-Geigy Corporation, priority 1990, dated 1992).

As a reminder, the IC50 is the point on the concentration scale where inhibition reaches its midpoint. Lower therefore signals higher potency. Broadly, the minimal effective dose is the lowest level tested that produced the effect sought.

Assay [1] is described as follows: hot plate test for analgesia in the mouse (mean response latency). In kind it is in vivo. The settings on record: for dose that increases the mean response latency in the hot plate test: mice, intracerebroventricular administration. From the text:
The analgesic activity is demonstrable by potentiation of the analgesic effects of enkephalin and derivatives thereof, and by classical analgesic tests, such as the phenyl-p-benzoquinone induced writing test [J. Pharmacol. Exp. Therap. 125, 237 (1959)] and the hot plate test in the mouse [J. Pharmaol. Exp. Therap. 107, 385 (1953)].
The analgesic activity can be measured by the hot-plate test method in the mouse as follows and essentially as described in J. Pharmacol. Exp. Therap. 107, 385 (1953).
The compound is administered intravenously or intracerebroventricularly 15 minutes prior to the measurement of the response latency. Male CF, (Charles River) mice (20 g) are allowed food and water ad libitum up to the time of testing. The hot plate test for analgesia utilizes an apparatus with an electrically heated, thermostatically controlled copper plate (Analgesia Meter). A Plexiglas cylinder, 25.5 cm×16 cm (inner diameter) and open at both ends, confines the mice to the central area of the hot plate. The surface temperature is maintained at 55°±0.5° C. Response latency is recorded as the time (seconds) from contact with the hot plate until a jump occurs or at 240 seconds if no response occurs within this time. Animals are individually tested at 15 minutes following intravenous or intracerebroventricular (ICV) injection. Intracerebroventricular injections into the lateral ventricle are carried out according to the method of Haley and McCormick, as described in Brit. J. Pharmacol. 12; 12, 1957.
The mean response latency and standard error are calculated. Significance is determined using Student's unpaired t-test, 2-tailed comparison.
A general note: Thermal pain tests record how soon the animal reacts.

Assay [2] deals with enkephalinase. Briefly: in vivo potentiation of the analgesic effect of met-enkephalin (enkephalinase inhibitory activity in vivo). Particulars: met-enkephalin (20 ug), intracerebroventricular administration. The arrangement: species or system mouse. The protocol: (§1) The enkephalinase inhibitory activity can be determined in vivo, e.g. by measuring the potentiation of the analgesic activity of intracerebrally administered D-Ala^2 -met^5 -enkephalinamide or met-enkephalin in mice. The enkephalinase inhibitory activity is also determined in vivo by measuring the increase in endogenous brain enkephalin levels, or by direct measurement of striatum enkephalinase activity in mice.

Assay [3] deals with T1, enkephalinase (Rattus norvegicus, UniProt P07861).
T1 construct: synaptic membrane preparation from rat striatum; from tissue; host or cells: rat striatum, synaptic membrane preparation
T1 sequence (P07861 1-750): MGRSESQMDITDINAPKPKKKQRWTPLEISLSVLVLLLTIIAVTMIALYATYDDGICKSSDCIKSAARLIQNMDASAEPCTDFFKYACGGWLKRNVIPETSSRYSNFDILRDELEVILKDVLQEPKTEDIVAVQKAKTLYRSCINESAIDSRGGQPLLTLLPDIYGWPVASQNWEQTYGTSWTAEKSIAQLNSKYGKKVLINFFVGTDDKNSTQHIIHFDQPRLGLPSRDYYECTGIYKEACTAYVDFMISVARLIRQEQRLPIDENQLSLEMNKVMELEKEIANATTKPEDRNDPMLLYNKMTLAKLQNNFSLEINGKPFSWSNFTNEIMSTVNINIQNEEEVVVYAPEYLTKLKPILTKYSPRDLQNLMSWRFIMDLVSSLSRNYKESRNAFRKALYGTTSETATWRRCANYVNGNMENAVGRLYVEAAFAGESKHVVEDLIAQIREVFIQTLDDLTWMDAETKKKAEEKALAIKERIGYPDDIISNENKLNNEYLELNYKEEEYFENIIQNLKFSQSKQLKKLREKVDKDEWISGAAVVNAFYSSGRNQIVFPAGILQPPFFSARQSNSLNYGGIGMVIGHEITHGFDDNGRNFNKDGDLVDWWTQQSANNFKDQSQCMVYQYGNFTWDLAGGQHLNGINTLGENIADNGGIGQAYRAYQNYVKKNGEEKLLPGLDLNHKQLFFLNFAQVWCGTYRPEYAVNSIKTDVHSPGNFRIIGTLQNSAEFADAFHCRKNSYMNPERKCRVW
Briefly: in vitro inhibition of enkephalinase (3H-Tyr-gly-gly generation from 3H-Leu-enkephalin, synaptic membranes from rat striatum). It counts as biochemical. The settings on record: rat striatum synaptic membrane preparation, pH 6-5, 15 minutes at 30° C., 10^-6 M Bestatin. The protocol:
The enkephalinane inhibitory activity is determined in vitro by an adaptation of the method of Alstein et al. as described in Life Sciences 28, 185 (1981), as follows:
A mixture of a solution of the test compound in distilled water or distilled water and ethanol diluted with pH 6-5 buffer and of a synaptic membrane preparation from rat striatum is incubated at pH 6-5 with ^3 H-Leu-enkephalin for 15 minutes at 30° C., in the presence of 10^-6 M Bestatin (to inhibit aminopeptidase activity). The reaction is stopped by the addition of 30% acetic acid and the reaction product ^3 H-Tyr-gly-gly is separated from unreacted ^3 H-Leu-enkephalin on a Porapak O column followed by a Cu^++ -chelex column. The ^3 H-Tyr-gly-gly is counted by liquid scintillation. The amount of ^3 H-Tyr-gly-gly generated in the presence of test compound as compared to control is then calculated. An IC50 value representing the concentration of test compound required for 50% inhibition of ^3 H-Tyr-gly-gly generation is then determined graphically.

Assay [4] concerns enkephalinase. Briefly: in vivo potentiation of the analgesic effect of D-Ala^2-Met^5-enkephalinamide (enkephalinase inhibitory activity in vivo). Also noted: species or system mouse. The settings on record: s.c. The protocol: as §1

For the compound `CCOC(=O)[C@@H](Cc1ccccc1)C[C@H](Cc1ccccc1)C(=O)NCCC(=O)O` (relative stereo) [N-[4-ethoxycarbonyl-(R*,R*)-2,4-dibenzylbutyryl]-3-aminopropionic acid], the “dose that increases the mean response latency in the hot plate test” value in assay [1] is approximately 0.03 µg. Further, in the assay with enkephalinase [2], the “dose that potentiates the analgesic effect of met-enkephalin” value is given as “about 0.01 ug”. With `O=C(O)CCNC(=O)[C@H](Cc1ccccc1)C[C@@H](Cc1ccccc1)C(=O)O` [N-(2S,4S-dibenzyl-4-carboxybutyryl)-3-aminopropionic acid], the 50% inhibitory concentration (IC50) at enkephalinase [3] is approximately 8 nM.

`CC1(C)O[C@@H]2[C@@H](COC(=O)CCNC(=O)[C@H](Cc3ccccc3)C[C@@H](Cc3ccccc3)C(=O)O)OC(=O)[C@@H]2O1` [17/6, 2,3-O-isopropylidene-D-ribono-(1,4-lactone)-5-yl N-(2S,4S-dibenzyl-4-carboxybutyryl)-3-aminopropionate]: the “dose that potentiates the analgesic effect of D-Ala^2-Met^5-enkephalinamide” value with enkephalinase [4] is 30 mg/kg. On to `O=C(O)CCCNC(=O)[C@@H](Cc1ccccc1)C[C@H](Cc1ccccc1)C(=O)O` (relative stereo) [N-[(R*,R*)-2,4-dibenzyl-4-carboxybutyryl]-4-aminobutyric acid], for which the IC50 on enkephalinase [3] is approximately 20 nM. Also, the “dose that increases the mean response latency in the hot plate test” value in assay [1] is on record as “about 0.1 ug”. For the compound `CC1(C)O[C@H]2O[C@H]([C@H]3COC(C)(C)O3)[C@H](OC(=O)CCNC(=O)[C@H](Cc3ccccc3)C[C@@H](Cc3ccccc3)C(=O)O)[C@H]2O1` [Example 17/10, 1,2:5,6-di-O-isopropylidene-D-glucofuranos-3-yl N-(2S,4S-dibenzyl-4-carboxybutyryl)-3-aminopropionate], the minimal effective dose in assay [1] (iv, 0.25 h, mouse, effective at the dose "and lower") was not above 30 mg/kg.

On enkephalinase [3], `O=C(O)CCNC(=O)[C@@H](Cc1ccccc1)C[C@H](Cc1ccccc1)C(=O)O` (relative stereo) [N-[(R*,R*)-2,4-dibenzyl-4-carboxybutyryl]-3-aminopropionic acid] displayed an IC50 of approximately 20 nM.
